# Measurements taken from paper PMC8951328, “New Metabolites from the Marine Sponge Scopalina hapalia Collected in Mayotte Lagoon” (Marine Drugs, 2022).
# Target: T1, yeast proteasome (Saccharomyces cerevisiae, UniProt P30656)
# T1 construct: gene PRE2; yeast proteasome (TUM Groll group); with other subunits of the yeast proteasome
# T1 sequence (P30656 76-287): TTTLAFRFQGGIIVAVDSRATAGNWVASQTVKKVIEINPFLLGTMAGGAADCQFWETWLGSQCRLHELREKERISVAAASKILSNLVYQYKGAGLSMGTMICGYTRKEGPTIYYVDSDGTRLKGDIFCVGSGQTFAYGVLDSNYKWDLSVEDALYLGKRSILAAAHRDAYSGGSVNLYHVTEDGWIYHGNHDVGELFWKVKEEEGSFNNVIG
# Assay: fluorescence intensity assay with Suc-Leu-Leu-Val-Tyr-AMC substrate
# Type: biochemical
structure (smiles),measurement,value
COc1ccc(C[C@H](NC(=O)[C@H](C)NC(=O)CN2CCOCC2)C(=O)N[C@@H](Cc2ccccc2)C(=O)[C@@]2(C)CO2)cc1 [ONX-0914],IC50,0.0366 nM
